# pIC50: −log10 of the molar value.
# Legend:
# [1] = Plasma protein binding by ultrafiltration, human plasma; assay type: in vitro ADME
# Method: (§1) To prepare plasma samples of TPB15 at final concentrations of 4, 8, and 16 μg/mL, 1 μL of TPB15 dissolved in dimethyl sulfoxide (DMSO) at low (400 μg/mL), medium (800 μg/mL), and high (1600 μg/mL) concentrations was added to 99 μL of blank plasma obtained from humans, rats, mice, monkeys, and dogs. Each concentration was prepared in six replicates. The samples were then divided into two groups: one for determining the pre-ultrafiltration concentration (Cpre) and the other for measuring the post-ultrafiltration concentration (Ct), following the evaluation of the non-specific binding coefficient (NSB) of TPB15 to the ultrafiltration tubes. For Cpre determination, 10 μL of the sample was mixed with 990 μL of plasma, vortexed thoroughly, and analyzed for drug concentration using the previously reported liquid chromatography–tandem mass spectrometry (LC-MS/MS) method. For Ct determination, the samples were first incubated in a water bath at 37 °C for 3 h. After incubation, they were transferred to ultrafiltration tubes and centrifuged at 14,000 rpm for 20 min at 4 °C using a centrifuge (Sigma 3K-15) from Sigma Laborzentrifugen GmbH (Osterode am Harz, Germany). After centrifugation, 10 μL of the ultrafiltrate was mixed with 990 μL of plasma, vortexed, and analyzed for concentration using the same LC-MS/MS method. The formula for calculating the plasma protein binding rate (PPB) is as follows: PPB (%) = [1 − Ct/(1 − NSB)/Cpre] × 100%. (NSB: non-specific binding coefficient. […]).
# [2] = Plasma protein binding by ultrafiltration, dog plasma; assay type: in vitro ADME; settings: beagle
# Method: as §1
# [3] = Stability in human plasma; assay type: in vitro ADME; settings: 37 °C, 453 μg/L
# Method: (§2) A total of 696.5 μL of plasma from each species (healthy mice, rat, dog, monkey, and human) were spiked with 3.5 μL of TPB15 stock solution ([…] in DMSO), resulting in a final TPB15 concentration of 453 μg/L in plasma. The mixture was then aliquoted into three tubes, each with a volume of 200 μL, maintaining a final DMSO concentration of 0.5%. After incubation in a water bath at 37 °C for 0, 30, 60, 90, and 120 min, 100 µL samples were transferred into EP tubes. Subsequently, 10 µL of internal standard working solution were added, followed by vortex mixing. Then, 500 µL of ethyl acetate were added, and the mixture was vortexed again before being centrifuged at 14,800 rpm at 4 °C for 10 min. A total of 400 µL of the supernatant were transferred into a new EP tube and placed in a vacuum concentrator (Bionoon-VAC2) (Bionoon Biotech, Shanghai, China) to dry for 1 h. The dried residue was reconstituted with 100 µL of mobile phase, vortex mixed thoroughly, and centrifuged again at 14,800 rpm at 4 °C for 10 min. A volume of 5 µL of the supernatant was then taken for LC-MS/MS analysis to determine the drug concentration. Additionally, a blank control group was established, in which PBS buffer was used in place of blank plasma in the incubation system.
# [4] = Stability in rat plasma; assay type: in vitro ADME, SD rat; settings: 37 °C, 453 μg/L
# Method: as §2
# [5] = Stability in dog plasma; assay type: in vitro ADME, beagle dog; settings: 37 °C, 453 μg/L
# Method: as §2
# [6] = tested on: normal mammary epithelial cells (MCF10A); parameters: method as in PMID 32690258; settings: read-out: half-maximal inhibitory concentration (IC50) on normal mammary epithelial cells (MCF10A); cited from earlier work
smiles,measurement,setting,value
O=C(Nc1ccc(Cl)c(-c2nnc3c(Cl)cccn23)c1)c1ccc(Cl)nc1Cl [TPB15],fraction unbound at 3 h,"[1]; human plasma, 4 to 16 μg/mL, read-out: average plasma protein binding rates, range over concentrations",0.179 to 0.185
same,"fraction unbound at 3 h, 4 μg/mL","[1]; human, plasma, 4 μg/mL TPB15, ultrafiltration, 37 °C 3 h",0.185
same,"fraction unbound at 3 h, 8 μg/mL","[1]; human, plasma, 8 μg/mL TPB15, ultrafiltration, 37 °C 3 h",0.183
same,"fraction unbound at 3 h, 16 μg/mL","[1]; human, plasma, 16 μg/mL TPB15, ultrafiltration, 37 °C 3 h",0.179
same,"fraction unbound at 3 h, 4 μg/mL","[2]; dog, plasma, 4 μg/mL TPB15, ultrafiltration, 37 °C 3 h",0.185
same,"fraction unbound at 3 h, 8 μg/mL","[2]; dog, plasma, 8 μg/mL TPB15, ultrafiltration, 37 °C 3 h",0.19
same,"fraction unbound at 3 h, 16 μg/mL","[2]; dog, plasma, 16 μg/mL TPB15, ultrafiltration, 37 °C 3 h",0.177
same,fraction unbound at 3 h,"[2]; dog plasma, 4 to 16 μg/mL, read-out: average plasma protein binding rates, range over concentrations",0.177 to 0.19
same,Remaining proportion of substrate TPB15 (%) Human,[3]; incubation 0 min,100.0 ± 1.0%
same,Remaining proportion of substrate TPB15 (%) Human,[3]; incubation 30 min,97.3 ± 1.5%
same,Remaining proportion of substrate TPB15 (%) Human,[3]; incubation 60 min,97.7 ± 0.6%
same,Remaining proportion of substrate TPB15 (%) Human,[3]; incubation 90 min,98.0 ± 1.0%
same,Remaining proportion of substrate TPB15 (%) Human,[3]; incubation 120 min,97.2 ± 1.1%
same,Remaining proportion of substrate TPB15 (%) SD rat,[4]; incubation 0 min,100.0 ± 0.6%
same,Remaining proportion of substrate TPB15 (%) SD rat,[4]; incubation 30 min,99.7 ± 1.5%
same,Remaining proportion of substrate TPB15 (%) SD rat,[4]; incubation 60 min,97.6 ± 0.6%
same,Remaining proportion of substrate TPB15 (%) SD rat,[4]; incubation 90 min,99.1 ± 0.3%
same,Remaining proportion of substrate TPB15 (%) SD rat,[4]; incubation 120 min,98.0 ± 0.6%
same,Remaining proportion of substrate TPB15 (%) Beagle dog,[5]; incubation 0 min,100.0 ± 1.1%
same,Remaining proportion of substrate TPB15 (%) Beagle dog,[5]; incubation 30 min,99.3 ± 0.7%
same,Remaining proportion of substrate TPB15 (%) Beagle dog,[5]; incubation 60 min,98.9 ± 0.4%
same,Remaining proportion of substrate TPB15 (%) Beagle dog,[5]; incubation 90 min,97.1 ± 1.4%
same,Remaining proportion of substrate TPB15 (%) Beagle dog,[5]; incubation 120 min,98.0 ± 0.8%
same,pIC50,[6],3.77

# Reference: PMC12030497, “Plasma Protein Binding, Biostability, Metabolite Profiling, and CYP450 Phenotype of TPB15 Across Different Species: A Novel Smoothened Inhibitor for TNBC Therapy” (Pharmaceutics, 2025)
